Data: patent US20260137662A1, “CD11B AGONISTS FOR TREATMENT OF AUTOIMMUNE DISEASE” (Rush University Medical Center, priority 2022, published 2026)

Experiments:
[1] = system: RAW 264.7 murine macrophage cell line; assay: suPAR and TNFa secretion from RAW 264.7 cells treated with LN patient sera (ELISA); type: cell-based; conditions: co-treatment LN sera (0.5%) and LA1 (20 uM), 4 hours, vs LN sera alone
Description: FIG. 1A illustrates levels of biomarker suPAR secretion from RAW 264.7 cells after 4 hours of treatment with cell culture medium (UT), LA1 (20 uM), LN patient sera (0.5%) in culture medium ([…]), or co-treatment with LN sera (0.5%) and LA1 (20 uM). […] FIG. 1B illustrates levels of biomarker TNFa secretion from RAW 264.7 cells after 4 hours of treatment with cell culture medium (UT), LA1 (20 uM), LN patient sera (0.5%) in culture medium ([…]), or co-treatment with LN sera (0.5%) and LA1 (20 uM). […] Myeloid cells from RAW 264.7 murine macrophage cell line were used to measure the concentration of pro-inflammatory biomarkers, soluble uPAR (suPAR) and TNFa, in the presence of lupus nephritis (LN) sera and LA1. The levels of pro-inflammatory biomarkers were measured in the supernatant of untreated cells, cells treated with LA1, cells treated with sera from patients with lupus nephritis (LN), and cells co-treated with LN sera and LA1. The concentrations of various pro-inflammatory biomarkers in cell supernatant were measured 4 hours after treatment using ELISA.

[2] = system: BMDMs from C57BL/6 wild type mice (WT); assay: Biomarker secretion from IMQ-treated bone marrow derived macrophages of wild type mice; type: cell-based; conditions: WT cells, IMQ (20 ug/mL) and LA1 (20 uM) co-treatment, 4 hours
Description: (§1) FIG. 7A illustrates levels of biomarker IL-6 secretion in bone marrow derived macrophages (BMDMs) from C57BL/6 wild type (WT) mice, mice with global deletion of CD11b (KO), or C57BL/6 mice expressing CD11b with a point mutation (KI), the macrophages treated for 4 hours with vehicle DMSO (UT), LA1 (20 uM), IMQ (20 ug/mL), or IMQ and LA1 co-treatment. Bars show mean with SD (N=3) (*P<0.05, **P<0.01, ***P<0.001, ****P<0.0001).
as §1, with “7B” for “7A”, “IL-1b” for “IL-6”
as §1, with “7C” for “7A”, “suPAR” for “IL-6”
as §1, with “7D” for “7A”, “IFNb” for “IL-6”
Bone marrow derived macrophages (BMDMs) from C57BL/6 wild type mice (WT), mice with global deletion of CD11b (KO), and C57BL/6 mice expressing CD11b with a point mutation (KI), as described previously (Martinez et al., 2020) were used to evaluate the effect of pharmacologic activation of CD11b by LA1 or genetic activation of CD11b on TLR-pathway dependent biomarkers. BMDMs from WT, KO, and KI mice were left untreated, treated with LA1, treated with IMQ, or co-treated with LA1 and IMQ and levels of biomarkers IL-1b, suPAR, IL-6 and IFN-b were measured 4 hours after treatment.

[3] = system: IMQ-induced mouse model of lupus; assay: IMQ-induced mouse model of lupus, LA1 started 0, 2 or 4 weeks after disease induction; type: in vivo, wild type C57BL/6 mice
Description: FIG. 12A illustrates levels of anti-dsDNA antibodies measured weekly in mice co-treated with IMQ and LA1 (30 mg/kg, BID) for 8 weeks. Each dot represents mean +/−SEM (n=4).
FIG. 12B illustrates levels of anti-dsDNA antibodies measured weekly in mice treated with IMQ for 8 weeks starting at week 0 and additionally treated with LA1 (30 mg/kg, BID) for 6 weeks, starting at week 2. Each dot represents mean +/−SEM (n=4).
FIG. 12C illustrates levels of anti-dsDNA antibodies measured weekly in mice treated with IMQ for 8 weeks starting at week 0 and additionally treated with LA1 (30 mg/kg, BID) for 4 weeks, starting at week 4. Each dot represents mean +/−SEM (n=4).
FIG. 12D illustrates levels of biomarker suPAR measured weekly in mice co-treated with IMQ and LA1 (30 mg/kg, BID) for 8 weeks. Each dot represents mean +/−SEM (n=4).
FIG. 12E illustrates levels of biomarker suPAR measured weekly in mice treated with IMQ for 8 weeks starting at week 0 and additionally treated with LA1 (30 mg/kg, BID) for 6 weeks, starting at week 2. Each dot represents mean +/−SEM (n=4).
FIG. 12F illustrates levels of biomarker suPAR measured weekly in mice treated with IMQ for 8 weeks starting at week 0 and additionally treated with LA1 (30 mg/kg, BID) for 4 weeks, starting at week 4. Each dot represents mean +/−SEM (n=4).
FIG. 12G illustrates an experimental timeline for the measurement of anti-dsDNA antibody and suPAR levels in mice treated with IMQ and LA1 for 8 weeks, the LA1 treatment initiated at various time points.
To assess therapeutic efficacy of LA1 in a TLR7-dependent SLE murine model, an IMQ-induced mouse model of lupus (Yokogawa et al., 2014) was used. To induce disease, wild type C57BL/ 6 mice (WT) were treated with IMQ cream (Aldara) over the course of 8 weeks. IMQ-induced mice were then treated with LA 1, the treatment initiated at 0, 2, and 4 weeks after disease induction, as shown in FIG. 12G. Anti-dsDNA antibody and suPAR levels were measured in the murine serum at various time points during treatment.

[4] = LA1 30 mg/kg BID co-treated with IMQ for 8 weeks (start week 0)
[5] = LA1 30 mg/kg BID started four weeks after initial IMQ (after disease onset)
[6] = LA1 30 mg/kg BID started two weeks after initial IMQ (after disease onset)

In the case of `O=C(O)c1ccc(-c2ccc(/C=C3\SC(=S)N(Cc4ccccc4)C3=O)o2)cc1` [LA1, (Z)-4-(5-((3-benzyl-4-oxo-2-thioxothiazolidin-5-ylidene)methyl)furan-2-yl)benzoic acid], the “level of TNFa in cell supernatant” value [1] is reported as “significantly reduced”, the “level of soluble uPAR (suPAR) in cell supernatant” value [1] is reported as “significantly reduced” and the “level of IFN-b in cell supernatant” value [2] is reported as “significantly suppressed”. The “level of IL-1b in cell supernatant” value [2] was “significantly suppressed”, the “level of IL-6 in cell supernatant” value [2] was “significantly suppressed” and the “level of suPAR in cell supernatant” value [2] was “significantly suppressed”. The “anti-dsDNA antibody levels in serum” value [3, 4] was “significantly reduced”, the “suPAR levels in serum” value [3, 4] was “significantly reduced” and the “anti-dsDNA antibody levels in serum” value [3, 5] was “significantly reduced”. For the same molecule, the “suPAR levels in serum” value [3, 5] was “significantly reduced”, the “anti-dsDNA antibody levels in serum” value [3, 6] was “significantly reduced” and the “suPAR levels in serum” value [3, 6] was “significantly reduced”.
